Assays:
Human HDAC7 = target: T1, Human HDAC7 (Homo sapiens, UniProt Q8WUI4); experiment: HDAC7 biochemical assay, class IIa-specific substrate; settings: read-out: HDAC Isoform IC50 (nM) 7
T1 construct: (a.a. 518-end) with N-terminal GST tag; GST (N); host or cells: baculovirus expression system
T1 sequence (Q8WUI4 518-952 limits assumed): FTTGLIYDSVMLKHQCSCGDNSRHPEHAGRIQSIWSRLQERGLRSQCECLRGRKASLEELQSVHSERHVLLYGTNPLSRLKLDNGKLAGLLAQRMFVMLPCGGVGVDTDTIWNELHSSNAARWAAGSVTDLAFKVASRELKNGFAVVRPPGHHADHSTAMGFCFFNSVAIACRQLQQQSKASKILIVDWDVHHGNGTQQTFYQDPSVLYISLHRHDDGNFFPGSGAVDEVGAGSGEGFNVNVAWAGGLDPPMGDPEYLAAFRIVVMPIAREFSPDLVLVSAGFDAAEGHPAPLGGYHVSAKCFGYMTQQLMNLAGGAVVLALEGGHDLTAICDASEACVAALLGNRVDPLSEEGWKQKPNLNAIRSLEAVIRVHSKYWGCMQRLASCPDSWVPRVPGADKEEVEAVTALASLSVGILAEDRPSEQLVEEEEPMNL
Method in brief: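 Two-step fluorogenic readout: class IIa-selective trifluoroacetyl-lysine AMC substrate (50 μM) deacetylated by N-terminal GST-HDAC7 fragment (0.001 ng/ul), then digested by developer, Ex/Em 360/460. Reaction: 30 min, room temperature, Tris-HCl pH 8.0, NaCl/KCl/MgCl2, 1 mg/mL BSA, 1% DMSO.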

Recombinant human HDAC6 = target: T2, Recombinant human HDAC6 (Homo sapiens, UniProt Q9UBN7); experiment: HDAC6 biochemical assay, AMC-labeled peptide substrate; settings: HDAC6; read-out: HDAC Isoform IC50 (nM) 6
T2 construct: full length, MW=159 kDa; GST (N); host or cells: Sf9 insect cells (baculovirus)
T2 sequence (Q9UBN7 1-1215): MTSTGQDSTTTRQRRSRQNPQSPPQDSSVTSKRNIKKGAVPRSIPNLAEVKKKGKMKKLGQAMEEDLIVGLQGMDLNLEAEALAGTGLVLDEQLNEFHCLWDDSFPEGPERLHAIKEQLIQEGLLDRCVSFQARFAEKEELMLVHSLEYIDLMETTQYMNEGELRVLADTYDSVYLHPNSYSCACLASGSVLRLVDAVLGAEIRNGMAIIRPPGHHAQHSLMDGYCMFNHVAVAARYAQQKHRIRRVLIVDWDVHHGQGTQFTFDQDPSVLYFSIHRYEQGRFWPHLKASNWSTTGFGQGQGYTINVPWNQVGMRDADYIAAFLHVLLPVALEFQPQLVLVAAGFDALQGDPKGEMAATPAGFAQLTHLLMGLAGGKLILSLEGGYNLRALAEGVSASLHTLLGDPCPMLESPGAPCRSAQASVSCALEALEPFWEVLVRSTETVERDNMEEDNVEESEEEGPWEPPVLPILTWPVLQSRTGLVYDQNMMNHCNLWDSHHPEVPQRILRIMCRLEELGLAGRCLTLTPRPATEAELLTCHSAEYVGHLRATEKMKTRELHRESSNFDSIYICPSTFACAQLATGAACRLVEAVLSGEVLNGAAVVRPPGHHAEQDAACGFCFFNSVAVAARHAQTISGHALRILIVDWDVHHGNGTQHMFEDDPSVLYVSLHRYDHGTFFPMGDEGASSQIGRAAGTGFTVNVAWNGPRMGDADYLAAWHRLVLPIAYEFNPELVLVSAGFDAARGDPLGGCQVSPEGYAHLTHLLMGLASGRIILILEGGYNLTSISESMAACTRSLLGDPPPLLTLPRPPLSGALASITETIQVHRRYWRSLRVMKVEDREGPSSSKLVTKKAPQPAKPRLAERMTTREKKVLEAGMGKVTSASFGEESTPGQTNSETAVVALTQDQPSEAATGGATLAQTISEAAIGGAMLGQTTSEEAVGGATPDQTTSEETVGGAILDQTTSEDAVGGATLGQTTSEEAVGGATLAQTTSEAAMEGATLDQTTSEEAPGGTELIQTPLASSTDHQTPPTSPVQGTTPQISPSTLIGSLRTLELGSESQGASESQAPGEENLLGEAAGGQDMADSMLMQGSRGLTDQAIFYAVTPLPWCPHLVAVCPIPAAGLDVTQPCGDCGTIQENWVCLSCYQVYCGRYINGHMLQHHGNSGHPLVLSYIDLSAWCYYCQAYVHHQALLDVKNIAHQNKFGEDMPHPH
Method in brief: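 Two-step fluorogenic read-out: enzyme deacetylates 50 μM RHKK(Ac)AMC for 1 h at 30° C in pH 8.0 Tris buffer with BSA and 1% DMSO, then developer cleavage gives signal at Ex 360/Em 460. Enzyme: 0.3 ng/ul recombinant full-length human HDAC6, GST-tagged, Sf9-expressed.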

Human HDAC1 = target: T3, Human HDAC1 (Homo sapiens, UniProt Q13547); experiment: HDAC1 biochemical assay, AMC-labeled peptide substrate; settings: read-out: HDAC Isoform IC50 (nM) 1
T3 construct: full length with C-terminal His-tag and C-terminal FLAG-tag; His (C); FLAG (C); host or cells: baculovirus expression system
T3 sequence (Q13547 whole entry, canonical isoform): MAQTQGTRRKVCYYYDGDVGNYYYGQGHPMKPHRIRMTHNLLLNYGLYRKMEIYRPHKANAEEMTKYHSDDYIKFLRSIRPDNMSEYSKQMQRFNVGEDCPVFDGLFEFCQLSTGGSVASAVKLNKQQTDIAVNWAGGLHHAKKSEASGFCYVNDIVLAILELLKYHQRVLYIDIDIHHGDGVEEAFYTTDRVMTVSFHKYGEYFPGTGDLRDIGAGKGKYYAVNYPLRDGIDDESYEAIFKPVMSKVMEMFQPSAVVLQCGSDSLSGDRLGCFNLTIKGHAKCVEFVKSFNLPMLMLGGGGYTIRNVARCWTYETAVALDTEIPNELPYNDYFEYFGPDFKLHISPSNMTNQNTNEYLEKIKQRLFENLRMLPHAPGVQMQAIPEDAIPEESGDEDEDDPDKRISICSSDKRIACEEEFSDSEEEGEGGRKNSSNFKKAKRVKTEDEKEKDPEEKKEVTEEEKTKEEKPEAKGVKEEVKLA
Method in brief: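 Two-step fluorogenic read: HDAC1 deacetylates 50 μM acetyl-lysine AMC peptide RHKK(Ac)AMC for 1 h at 30° C (pH 8.0, 1% DMSO, with compound), then developer digests the product for fluorescence at Ex/Em 360/460. Enzyme is full-length human, His/FLAG-tagged, insect-cell expressed, at 0.3 ng/ul.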

| IC50 (Human HDAC7) [nM] | IC50 (Recombinant human HDAC6) [nM] | IC50 (Human HDAC1) [nM] | Compound |
| --- | --- | --- | --- |
| ≤ 10000 | ≤ 500 | > 10000 | CC1(c2cnnc(N(Cc3ccc(-c4noc(C(F)(F)F)n4)s3)c3cnccn3)c2)COC1 [Example GT, 5-(3-Methyloxetan-3-yl)-N-(pyrazin-2-yl)-N-({5-[5-(trifluoromethyl)-1,2,4-oxadiazol-3-yl]thiophen-2-yl}methyl)pyridazin-3-amine] |
| ≤ 1000 | ≤ 500 | > 10000 | OC1(c2cnnc(N(Cc3ccc(-c4noc(C(F)(F)F)n4)s3)c3cnccn3)c2)COC1 [Example GW, 3-{6-[(Pyrazin-2-yl)({5-[5-(trifluoromethyl)-1,2,4-oxadiazol-3-yl]thiophen-2-yl}methyl)amino]pyridazin-4-yl}oxetan-3-ol] |
| ≤ 10000 | ≤ 500 | > 10000 | COC1CN(Cc2ccnc(N(Cc3ccc(-c4noc(C(F)(F)F)n4)s3)c3cnccn3)c2)C1 [Example GH, N-{4-[(3-Methoxyazetidin-1-yl)methyl]pyridin-2-yl}-N-({5-[5-(trifluoromethyl)-1,2,4-oxadiazol-3-yl]thiophen-2-yl}methyl)pyrazin-2-amine] |
| ≤ 500 | ≤ 500 | > 10000 | O=C(c1ccc(N(Cc2ccc(-c3noc(C(F)(F)F)n3)s2)c2cnccn2)nn1)N1C[C@@H]2C[C@H]1CO2 [Example FE, 6-[(1S,4S)-2-Oxa-5-azabicyclo[2.2.1]heptane-5-carbonyl]-N-(pyrazin-2-yl)-N-({5-[5-(trifluoromethyl)-1,2,4-oxadiazol-3-yl]thiophen-2-yl}methyl)pyridazin-3-amine] |
| ≤ 10000 | ≤ 10000 | > 10000 | FC(F)(F)c1cncc(N(Cc2ccc(-c3noc(C(F)(F)F)n3)s2)c2cnccn2)n1 [Example BR, N-(Pyrazin-2-yl)-6-(trifluoromethyl)-N-({5-[5-(trifluoromethyl)-1,2,4-oxadiazol-3-yl]thiophen-2-yl}methyl)pyrazin-2-amine] |
| ≤ 10000 | ≤ 500 | > 10000 | O=C(c1cnnc(N(Cc2ccc(-c3noc(C(F)(F)F)n3)s2)c2cnccn2)c1)N1CC(F)(F)C1 [Example FT, 5-(3,3-Difluoroazetidine-1-carbonyl)-N-(pyrazin-2-yl)-N-({5-[5-(trifluoromethyl)-1,2,4-oxadiazol-3-yl]thiophen-2-yl}methyl)pyridazin-3-amine] |
| ≤ 1000 | ≤ 500 | > 10000 | COC1CN(C(=O)c2cnnc(N(Cc3ccc(-c4noc(C(F)(F)F)n4)s3)c3cnccn3)c2)C1 [Example DZ, 5-(3-Methoxyazetidine-1-carbonyl)-N-(pyrazin-2-yl)-N-({5-[5-(trifluoromethyl)-1,2,4-oxadiazol-3-yl]thiophen-2-yl}methyl)pyridazin-3-amine] |
| ≤ 500 | ≤ 500 | ≤ 10000 | CNC(=O)c1ccc(N(Cc2ccc(-c3noc(C(F)(F)F)n3)s2)c2cnccn2)nn1 [Example FC, N-Methyl-6-[(pyrazin-2-yl)({5-[5-(trifluoromethyl)-1,2,4-oxadiazol-3-yl]thiophen-2-yl}methyl)amino]pyridazine-3-carboxamide] |
| ≤ 500 | ≤ 500 | > 10000 | O=C(c1ccc(N(Cc2ccc(-c3noc(C(F)(F)F)n3)s2)c2cnccn2)nn1)N1CCOCC1 [Example DS, 6-(Morpholine-4-carbonyl)-N-(pyrazin-2-yl)-N-({5-[5-(trifluoromethyl)-1,2,4-oxadiazol-3-yl]thiophen-2-yl}methyl)pyridazin-3-amine] |
| ≤ 10000 | ≤ 500 | > 10000 | COc1cncc(N(Cc2ccc(-c3noc(C(F)(F)F)n3)s2)c2cnccn2)n1 [Example BQ, 6-Methoxy-N-(pyrazin-2-yl)-N-({5-[5-(trifluoromethyl)-1,2,4-oxadiazol-3-yl]thiophen-2-yl}methyl)pyrazin-2-amine] |
| ≤ 500 | ≤ 500 | > 10000 | CC(C)OC1CN(C(=O)c2cnnc(N(Cc3ccc(-c4noc(C(F)(F)F)n4)s3)c3cnccn3)c2)C1 [Example GC, 5-[3-(Propan-2-yloxy)azetidine-1-carbonyl]-N-(pyrazin-2-yl)-N-({5-[5-(trifluoromethyl)-1,2,4-oxadiazol-3-yl]thiophen-2-yl}methyl)pyridazin-3-amine] |
| ≤ 10000 | ≤ 10000 | > 10000 | COc1nccnc1N(Cc1ccc(-c2noc(C(F)(F)F)n2)s1)c1cnccn1 [Example BF, 3-Methoxy-N-(pyrazin-2-yl)-N-({5-[5-(trifluoromethyl)-1,2,4-oxadiazol-3-yl]thiophen-2-yl}methyl)pyrazin-2-amine] |

From US20210038607A1, “OXADIAZOLYLTHIOPHENE DERIVATIVES USEFUL AS HISTONE DEACETYLASE INHIBITORS” (Karus Therapeutics Limited, priority 2018, published 2021)
